PMC9067983, “Identification of highly selective type II kinase inhibitors with chiral peptidomimetic tails” (Journal of Enzyme Inhibition and Medicinal Chemistry, 2022)
Where a SMILES comes first, the peptide text is derived from it. [ ]: non-standard residue; d: D form. The star is where a group is joined. X1 = Cc1ccc(Nc2ncc3c(n2)N(C)C(=O)N(c2cc(C(=O)*)ccc2C)C3)cn1; Aib = CC(C)(N)C(=O)O

What was measured:
Lck = molecular target: T1, Lck (Homo sapiens, UniProt P06239); assay: Biochemical IC50 on Lck at Km and 1 mM ATP
T1 construct: purchased Reaction Biology Corp
T1 sequence (P06239 whole entry): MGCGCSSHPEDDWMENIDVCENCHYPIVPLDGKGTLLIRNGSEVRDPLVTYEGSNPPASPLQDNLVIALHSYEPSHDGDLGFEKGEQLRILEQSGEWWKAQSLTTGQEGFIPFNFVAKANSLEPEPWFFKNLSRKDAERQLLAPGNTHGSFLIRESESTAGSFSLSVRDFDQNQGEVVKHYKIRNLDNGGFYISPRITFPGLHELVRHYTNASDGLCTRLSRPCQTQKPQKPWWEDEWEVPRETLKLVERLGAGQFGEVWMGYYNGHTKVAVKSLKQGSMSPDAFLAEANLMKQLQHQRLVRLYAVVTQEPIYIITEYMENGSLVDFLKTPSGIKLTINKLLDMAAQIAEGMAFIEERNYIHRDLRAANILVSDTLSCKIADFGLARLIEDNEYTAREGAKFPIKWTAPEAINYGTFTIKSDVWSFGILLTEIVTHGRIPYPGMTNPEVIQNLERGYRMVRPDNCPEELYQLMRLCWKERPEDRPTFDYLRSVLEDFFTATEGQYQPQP
Procedure: (§1) Full panel kinase profiling and kinase IC50 measurement were performed by using Reaction Biology Corp. (San Diego, USA).

NEK4 = molecular target: T2, NEK4 (Homo sapiens, UniProt P51957); assay: kinase selectivity profiling; assay type: biochemical; conditions: 10µM ATP, read-out: % inhibition (relative to DMSO)
T2 construct: purchased Reaction Biology Corp
Procedure: as §1

KDR/VEGFR2 = molecular target: T3, KDR/VEGFR2 (Homo sapiens, UniProt P35968); assay: kinase selectivity profiling; assay type: biochemical; conditions: 10µM ATP, read-out: % inhibition (relative to DMSO)
T3 construct: purchased Reaction Biology Corp
Procedure: as §1

ALK1/ACVRL1 = molecular target: T4, ALK1/ACVRL1 (Homo sapiens, UniProt P37023); assay: kinase selectivity profiling; assay type: biochemical; conditions: 10µM ATP, read-out: % inhibition (relative to DMSO)
T4 construct: purchased Reaction Biology Corp
Procedure: as §1

PAK3 = molecular target: T5, PAK3 (Homo sapiens, UniProt O75914); assay: kinase selectivity profiling; assay type: biochemical; conditions: 10µM ATP, read-out: % inhibition (relative to DMSO)
T5 construct: purchased Reaction Biology Corp
T5 sequence (O75914 whole entry): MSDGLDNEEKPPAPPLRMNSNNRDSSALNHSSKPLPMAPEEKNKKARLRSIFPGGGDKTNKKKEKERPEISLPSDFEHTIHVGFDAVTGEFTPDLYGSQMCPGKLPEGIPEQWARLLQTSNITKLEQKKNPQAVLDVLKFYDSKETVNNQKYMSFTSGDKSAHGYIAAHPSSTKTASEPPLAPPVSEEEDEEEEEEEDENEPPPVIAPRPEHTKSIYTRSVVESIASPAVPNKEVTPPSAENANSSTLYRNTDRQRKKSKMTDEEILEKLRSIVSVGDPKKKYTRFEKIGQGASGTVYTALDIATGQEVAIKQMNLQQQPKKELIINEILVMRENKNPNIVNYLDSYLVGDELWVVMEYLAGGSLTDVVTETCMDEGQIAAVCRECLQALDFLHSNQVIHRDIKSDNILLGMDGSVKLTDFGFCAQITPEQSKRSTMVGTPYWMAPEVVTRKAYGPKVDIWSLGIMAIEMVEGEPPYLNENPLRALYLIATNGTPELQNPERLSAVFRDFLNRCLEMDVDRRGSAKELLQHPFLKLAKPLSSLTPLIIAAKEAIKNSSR
Procedure: as §1

PYK2 = molecular target: T6, PYK2 (Homo sapiens, UniProt Q14289); assay: kinase selectivity profiling; assay type: biochemical; conditions: 10µM ATP, read-out: % inhibition (relative to DMSO)
T6 construct: purchased Reaction Biology Corp
Procedure: as §1

MSSK1/STK23 = molecular target: T7, MSSK1/STK23 (Homo sapiens, UniProt Q9UPE1); assay: kinase selectivity profiling; assay type: biochemical; conditions: 10µM ATP, read-out: % inhibition (relative to DMSO)
T7 construct: purchased Reaction Biology Corp
Procedure: as §1

CDK16/cyclin Y (PCTAIRE) = molecular target: T8, CDK16/cyclin Y (PCTAIRE) (Homo sapiens, UniProt Q00536); assay: kinase selectivity profiling; assay type: biochemical; conditions: 10µM ATP, read-out: % inhibition (relative to DMSO)
T8 construct: purchased Reaction Biology Corp
T8 sequence (Q00536 whole entry): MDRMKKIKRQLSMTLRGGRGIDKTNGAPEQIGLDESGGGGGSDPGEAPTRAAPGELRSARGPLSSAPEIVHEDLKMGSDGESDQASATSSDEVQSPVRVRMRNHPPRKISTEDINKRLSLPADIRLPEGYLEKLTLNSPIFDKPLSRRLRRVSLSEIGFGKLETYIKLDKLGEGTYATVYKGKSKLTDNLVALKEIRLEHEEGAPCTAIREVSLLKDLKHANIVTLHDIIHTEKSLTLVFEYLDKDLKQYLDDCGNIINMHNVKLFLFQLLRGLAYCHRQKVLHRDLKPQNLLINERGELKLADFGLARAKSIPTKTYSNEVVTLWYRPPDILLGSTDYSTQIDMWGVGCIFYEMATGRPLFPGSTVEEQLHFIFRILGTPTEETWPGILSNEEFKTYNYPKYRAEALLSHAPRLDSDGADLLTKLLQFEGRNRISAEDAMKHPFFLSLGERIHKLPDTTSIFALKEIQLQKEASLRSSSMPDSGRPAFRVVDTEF
T8 sequence (Q8ND76 whole entry partner): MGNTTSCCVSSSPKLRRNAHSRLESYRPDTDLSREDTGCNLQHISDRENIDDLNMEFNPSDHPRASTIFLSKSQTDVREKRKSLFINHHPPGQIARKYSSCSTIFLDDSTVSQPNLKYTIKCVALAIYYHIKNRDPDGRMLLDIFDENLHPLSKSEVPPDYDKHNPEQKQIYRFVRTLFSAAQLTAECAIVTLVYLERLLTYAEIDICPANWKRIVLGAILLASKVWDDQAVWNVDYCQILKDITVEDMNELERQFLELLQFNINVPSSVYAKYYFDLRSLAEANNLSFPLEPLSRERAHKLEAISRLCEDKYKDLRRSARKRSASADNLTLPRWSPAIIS
Procedure: as §1

PASK = molecular target: T9, PASK (Homo sapiens, UniProt Q96RG2); assay: kinase selectivity profiling; assay type: biochemical; conditions: 10µM ATP, read-out: % inhibition (relative to DMSO)
T9 construct: purchased Reaction Biology Corp
Procedure: as §1

SLK/STK2 = molecular target: T10, SLK/STK2 (Homo sapiens, UniProt Q9H2G2); assay: kinase selectivity profiling; assay type: biochemical; conditions: 10µM ATP, read-out: % inhibition (relative to DMSO)
T10 construct: purchased Reaction Biology Corp
Procedure: as §1

LIMK1 = molecular target: T11, LIMK1 (Homo sapiens, UniProt P53667); assay: kinase selectivity profiling; assay type: biochemical; conditions: 10µM ATP, read-out: % inhibition (relative to DMSO)
T11 construct: purchased Reaction Biology Corp
Procedure: as §1

MLK2/MAP3K10 = molecular target: T12, MLK2/MAP3K10 (Homo sapiens, UniProt Q02779); assay: kinase selectivity profiling; assay type: biochemical; conditions: 10µM ATP, read-out: % inhibition (relative to DMSO)
T12 construct: purchased Reaction Biology Corp
Procedure: as §1

PAK6 = molecular target: T13, PAK6 (Homo sapiens, UniProt Q9NQU5); assay: kinase selectivity profiling; assay type: biochemical; conditions: 10µM ATP, read-out: % inhibition (relative to DMSO)
T13 construct: purchased Reaction Biology Corp
T13 sequence (Q9NQU5 whole entry): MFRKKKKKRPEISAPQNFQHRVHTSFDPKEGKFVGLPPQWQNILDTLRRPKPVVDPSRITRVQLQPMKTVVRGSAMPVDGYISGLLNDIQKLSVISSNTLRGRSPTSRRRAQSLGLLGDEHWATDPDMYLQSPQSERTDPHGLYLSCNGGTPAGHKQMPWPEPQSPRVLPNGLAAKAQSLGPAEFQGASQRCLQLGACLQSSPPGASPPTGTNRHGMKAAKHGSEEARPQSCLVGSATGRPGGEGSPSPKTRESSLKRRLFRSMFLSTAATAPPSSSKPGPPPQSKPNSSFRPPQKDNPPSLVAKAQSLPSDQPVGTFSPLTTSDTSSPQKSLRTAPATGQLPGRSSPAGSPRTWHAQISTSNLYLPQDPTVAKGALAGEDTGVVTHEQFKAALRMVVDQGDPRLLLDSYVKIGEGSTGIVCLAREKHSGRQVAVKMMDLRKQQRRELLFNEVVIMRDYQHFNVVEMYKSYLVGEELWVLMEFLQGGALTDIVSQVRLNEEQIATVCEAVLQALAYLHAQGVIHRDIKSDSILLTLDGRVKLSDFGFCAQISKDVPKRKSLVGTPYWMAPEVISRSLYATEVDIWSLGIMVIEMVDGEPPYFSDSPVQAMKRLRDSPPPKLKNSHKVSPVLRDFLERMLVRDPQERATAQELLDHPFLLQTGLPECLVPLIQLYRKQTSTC
Procedure: as §1

SRPK1 = molecular target: T14, SRPK1 (Homo sapiens, UniProt Q96SB4); assay: kinase selectivity profiling; assay type: biochemical; conditions: 10µM ATP, read-out: % inhibition (relative to DMSO)
T14 construct: purchased Reaction Biology Corp
T14 sequence (Q96SB4 whole entry): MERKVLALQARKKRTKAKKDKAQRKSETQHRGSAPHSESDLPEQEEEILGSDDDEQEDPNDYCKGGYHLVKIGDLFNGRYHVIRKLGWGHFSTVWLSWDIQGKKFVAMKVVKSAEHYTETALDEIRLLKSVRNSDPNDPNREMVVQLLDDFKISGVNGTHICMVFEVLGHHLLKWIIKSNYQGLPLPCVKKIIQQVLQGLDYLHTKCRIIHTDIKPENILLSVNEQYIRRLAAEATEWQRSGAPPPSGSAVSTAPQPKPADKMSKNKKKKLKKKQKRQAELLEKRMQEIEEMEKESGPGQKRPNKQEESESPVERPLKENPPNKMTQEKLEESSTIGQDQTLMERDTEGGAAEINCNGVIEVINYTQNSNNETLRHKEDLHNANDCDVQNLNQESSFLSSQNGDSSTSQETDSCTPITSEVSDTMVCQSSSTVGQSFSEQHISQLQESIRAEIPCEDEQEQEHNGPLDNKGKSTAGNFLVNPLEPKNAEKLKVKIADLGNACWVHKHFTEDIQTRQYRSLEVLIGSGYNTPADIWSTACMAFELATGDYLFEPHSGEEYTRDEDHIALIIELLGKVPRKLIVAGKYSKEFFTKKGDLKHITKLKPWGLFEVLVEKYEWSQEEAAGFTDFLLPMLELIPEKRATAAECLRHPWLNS
Procedure: as §1

RAF1 = molecular target: T15, RAF1 (Homo sapiens, UniProt P04049); assay: kinase selectivity profiling; assay type: biochemical; conditions: 10µM ATP, read-out: % inhibition (relative to DMSO)
T15 construct: purchased Reaction Biology Corp
T15 sequence (P04049 whole entry): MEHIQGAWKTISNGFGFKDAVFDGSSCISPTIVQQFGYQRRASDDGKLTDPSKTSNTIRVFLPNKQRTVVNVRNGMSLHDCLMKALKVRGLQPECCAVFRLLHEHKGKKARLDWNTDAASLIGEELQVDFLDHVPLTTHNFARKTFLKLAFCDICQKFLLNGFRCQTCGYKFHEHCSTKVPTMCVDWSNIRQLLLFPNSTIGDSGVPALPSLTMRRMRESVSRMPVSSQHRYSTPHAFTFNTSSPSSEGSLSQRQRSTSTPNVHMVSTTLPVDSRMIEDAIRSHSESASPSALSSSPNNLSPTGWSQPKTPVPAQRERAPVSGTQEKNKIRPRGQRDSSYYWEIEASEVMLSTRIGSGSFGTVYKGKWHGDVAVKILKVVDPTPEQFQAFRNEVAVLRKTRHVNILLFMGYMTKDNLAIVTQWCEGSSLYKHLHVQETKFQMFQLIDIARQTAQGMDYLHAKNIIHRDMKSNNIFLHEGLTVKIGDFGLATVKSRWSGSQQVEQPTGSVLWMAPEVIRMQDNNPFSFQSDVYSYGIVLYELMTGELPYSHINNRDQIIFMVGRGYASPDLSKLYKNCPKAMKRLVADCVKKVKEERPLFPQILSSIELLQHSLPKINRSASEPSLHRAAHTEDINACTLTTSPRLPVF
Procedure: as §1

EPHA5 = molecular target: T16, EPHA5 (Homo sapiens, UniProt P54756); assay: kinase selectivity profiling; assay type: biochemical; conditions: 10µM ATP, read-out: % inhibition (relative to DMSO)
T16 construct: purchased Reaction Biology Corp
Procedure: as §1

YSK4/MAP3K19 = molecular target: T17, YSK4/MAP3K19 (Homo sapiens, UniProt Q56UN5); assay: kinase selectivity profiling; assay type: biochemical; conditions: 10µM ATP, read-out: % inhibition (relative to DMSO)
T17 construct: purchased Reaction Biology Corp
Procedure: as §1

IRR/INSRR = molecular target: T18, IRR/INSRR (Homo sapiens, UniProt P14616); assay: kinase selectivity profiling; assay type: biochemical; conditions: 10µM ATP, read-out: % inhibition (relative to DMSO)
T18 construct: purchased Reaction Biology Corp
Procedure: as §1

CK1a1 = molecular target: T19, CK1a1 (Homo sapiens, UniProt P48729); assay: kinase selectivity profiling; assay type: biochemical; conditions: 10µM ATP, read-out: % inhibition (relative to DMSO)
T19 construct: purchased Reaction Biology Corp
T19 sequence (P48729 whole entry): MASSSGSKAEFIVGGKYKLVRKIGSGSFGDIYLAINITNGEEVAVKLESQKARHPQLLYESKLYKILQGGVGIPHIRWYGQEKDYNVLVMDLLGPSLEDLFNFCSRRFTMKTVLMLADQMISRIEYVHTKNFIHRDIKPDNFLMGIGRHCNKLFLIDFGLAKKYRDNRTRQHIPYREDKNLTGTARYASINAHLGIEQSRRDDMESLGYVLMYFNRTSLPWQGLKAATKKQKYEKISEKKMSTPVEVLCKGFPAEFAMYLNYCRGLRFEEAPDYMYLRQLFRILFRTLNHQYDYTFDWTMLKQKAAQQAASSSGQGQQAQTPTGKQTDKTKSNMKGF
Procedure: as §1

FRK/PTK5 = molecular target: T20, FRK/PTK5 (Homo sapiens, UniProt P42685); assay: kinase selectivity profiling; assay type: biochemical; conditions: 10µM ATP, read-out: % inhibition (relative to DMSO)
T20 construct: purchased Reaction Biology Corp
T20 sequence (P42685 whole entry): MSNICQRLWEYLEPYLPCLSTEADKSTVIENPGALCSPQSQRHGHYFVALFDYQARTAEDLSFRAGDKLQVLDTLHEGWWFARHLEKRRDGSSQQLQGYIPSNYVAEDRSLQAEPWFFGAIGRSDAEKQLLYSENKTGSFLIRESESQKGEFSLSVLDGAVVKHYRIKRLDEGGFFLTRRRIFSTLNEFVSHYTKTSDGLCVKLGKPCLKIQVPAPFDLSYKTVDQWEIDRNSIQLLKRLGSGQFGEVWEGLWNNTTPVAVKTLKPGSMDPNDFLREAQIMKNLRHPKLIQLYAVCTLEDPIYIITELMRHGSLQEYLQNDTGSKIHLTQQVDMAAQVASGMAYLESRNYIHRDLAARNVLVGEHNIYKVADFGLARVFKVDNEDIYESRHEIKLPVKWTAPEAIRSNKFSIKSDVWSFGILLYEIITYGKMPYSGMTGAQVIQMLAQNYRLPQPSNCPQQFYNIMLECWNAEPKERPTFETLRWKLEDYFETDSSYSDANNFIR
Procedure: as §1

CDK14/cyclin Y (PFTK1) = molecular target: T21, CDK14/cyclin Y (PFTK1) (Homo sapiens, UniProt O94921); assay: kinase selectivity profiling; assay type: biochemical; conditions: 10µM ATP, read-out: % inhibition (relative to DMSO)
T21 construct: purchased Reaction Biology Corp
Procedure: as §1

PRKX = molecular target: T22, PRKX (Homo sapiens, UniProt P51817); assay: kinase selectivity profiling; assay type: biochemical; conditions: 10µM ATP, read-out: % inhibition (relative to DMSO)
T22 construct: purchased Reaction Biology Corp
Procedure: as §1

JAK1 = molecular target: T23, JAK1 (Homo sapiens, UniProt P23458); assay: kinase selectivity profiling; assay type: biochemical; conditions: 10µM ATP, read-out: % inhibition (relative to DMSO)
T23 construct: purchased Reaction Biology Corp
Procedure: as §1

PKCb2 = molecular target: T24, PKCb2 (Homo sapiens, UniProt P05771); assay: kinase selectivity profiling; assay type: biochemical; conditions: 10µM ATP, read-out: % inhibition (relative to DMSO)
T24 construct: purchased Reaction Biology Corp
Procedure: as §1

CTK/MATK = molecular target: T25, CTK/MATK (Homo sapiens, UniProt P42679); assay: kinase selectivity profiling; assay type: biochemical; conditions: 10µM ATP, read-out: % inhibition (relative to DMSO)
T25 construct: purchased Reaction Biology Corp
Procedure: as §1

PDK1/PDPK1 = molecular target: T26, PDK1/PDPK1 (Homo sapiens, UniProt O15530); assay: kinase selectivity profiling; assay type: biochemical; conditions: 10µM ATP, read-out: % inhibition (relative to DMSO)
T26 construct: purchased Reaction Biology Corp
Procedure: as §1

MARK2/PAR-1Ba = molecular target: T27, MARK2/PAR-1Ba (Homo sapiens, UniProt Q7KZI7); assay: kinase selectivity profiling; assay type: biochemical; conditions: 10µM ATP, read-out: % inhibition (relative to DMSO)
T27 construct: purchased Reaction Biology Corp
Procedure: as §1

AXL = molecular target: T28, AXL (Homo sapiens, UniProt P30530); assay: kinase selectivity profiling; assay type: biochemical; conditions: 10µM ATP, read-out: % inhibition (relative to DMSO)
T28 construct: purchased Reaction Biology Corp
Procedure: as §1

Lck (Y394) = assay: Western blot of p-Lck (Y394) in anti-CD3-treated Jurkat cells; assay type: cell-based; conditions: anti-CD3-treated Jurkat T cells, 10, 50, or 100 μM, 30 min
Procedure: Figure 6. Effect of 7a on the Lck (Y394) activation in anti-CD3-treated Jurkat cells. After treatment with CD3 antibody for coating in plates, cells were seeded and then treated with various concentrations of 7a (10, 50, or 100 μM) or A770041 (1 μM) used as a positive control. The phosphorylation of Lck tyrosine in Jurkat cells was activated by anti-CD3 mAb. Total cellular protein was resolved by SDS-PAGE, transferred to PVDF membranes, and detected with specific p-Lck (Y394) antibody. β-Actin was used as an internal control.
Jurkat cells were purchased from the Korea Cell Line Bank (Seoul, Republic of Korea) and maintained in RPMI-1640 medium containing 10% FBS, streptomycin sulphate, penicillin, HEPES, and sodium bicarbonate in a 5% CO2 atmosphere at 37 °C. Jurkat cells were stimulated with 1 μg/ml of plate-bound anti-CD3 mAb (clone HIT3a, BD Bioscience) and then incubated with KITS 1–001 (10, 50, or 100 μM) for 30 min.
The protein of Jurkat cells was extracted using a PRO-PREP (Intron Biotechnology, Seoul, Republic of Korea). The protein concentration was determined using Bio-Rad protein assay reagent according to the manufacturer’s instruction and BSA (Bio-Rad, Hercules, CA, USA) was used as a standard for quantification. […] The membranes were analysed using an enhanced chemiluminescence (ECL) substrate and imaged by LAS-4000 luminescent image analyser (FUJIFILM, Tokyo, Japan).

Cc1ccc(Nc2ncc3c(n2)N(C)C(=O)N(c2cc(C(=O)N[C@H](C(=O)N4CCC[C@H]4C(=O)NC(C)(C)C(=O)N[C@@H](CC(C)C)C(=O)N(C)C)C(C)C)ccc2C)C3)cn1 [7a, (S)-N-(1-(((S)-1-(dimethylamino)-4-methyl-1-oxopentan-2-yl)amino)-2-methyl-1-oxopropan-2-yl)-1-((4-methyl-3-(1-methyl-7-((6-methylpyridin-3-yl)amino)-2-oxo-1,4-dihydropyrimido[4,5-d]pyrimidin-3(2H)-yl)benzoyl)-L-valyl)pyrrolidine-2-carboxamide] (X1-VP[Aib]L-NMe2)
IC50 (Lck; ATP conc. 14 µM (Km)): 190 nM | IC50 (Lck; ATP conc. 1 mM): 21000 nM | mode of inhibition (Lck; IC50 at Km vs 1 mM ATP): ATP competitive kinase inhibitors | inhibition at 1 µM (NEK4): 0% | inhibition at 1 µM (KDR/VEGFR2): 12% | inhibition at 1 µM (ALK1/ACVRL1): 17% | inhibition at 1 µM (PAK3): 0% | inhibition at 1 µM (PYK2): 8% | inhibition at 1 µM (MSSK1/STK23): 10% | inhibition at 1 µM (CDK16/cyclin Y (PCTAIRE)): 6% | inhibition at 1 µM (PASK): 0% | inhibition at 1 µM (SLK/STK2): 9% | inhibition at 1 µM (LIMK1): 51% | inhibition at 1 µM (MLK2/MAP3K10): 16% | inhibition at 1 µM (PAK6): 0% | inhibition at 1 µM (SRPK1): 5% | inhibition at 1 µM (RAF1): 69% | inhibition at 1 µM (EPHA5): 23% | inhibition at 1 µM (YSK4/MAP3K19): 0% | inhibition at 1 µM (IRR/INSRR): 5% | inhibition at 1 µM (CK1a1): 0% | inhibition at 1 µM (FRK/PTK5): 15% | inhibition at 1 µM (CDK14/cyclin Y (PFTK1)): 6% | inhibition at 1 µM (PRKX): 0% | inhibition at 1 µM (JAK1): 9% | inhibition at 1 µM (PKCb2): 0% | inhibition at 1 µM (CTK/MATK): 10% | inhibition at 1 µM (PDK1/PDPK1): 1% | inhibition at 1 µM (MARK2/PAR-1Ba): 0% | inhibition at 1 µM (AXL): 0% | phosphorylated Lck levels at tyrosine 394 (Lck (Y394)): markedly reduced the phosphorylated Lck levels at tyrosine 394 residue in a concentration-dependent manner
